Laboratory results as given in patent publication US7122340B2, “Regulatory T cells; methods” (Schering Corporation, priority 2000, dated 2006).

Tested on: naive T cells (CD4+CD62L+)
Assay: Differentiation of naive CD4+ T cells stimulated with antigen and antigen presenting cells; cytokine profile after restimulation (FACS, secreted cytokines)
Type: cell-based, mouse
Details: antigen and APC culture of DO11.10 CD4+ T cells
Experimental: IL-2 is present in the culture after the first 3 days of activation. VitD3 is used at 4×10^-8 M (preferably in the range 4×10^-9 M to 4×10^-7 M) while DEX is used at 10^-8M (preferably in the range of 10^-9 M to 10^-7 M).
The cytokine profiles produced by the cells after restimulation are evaluated after 6 h by FACS analysis, while the quantities are accumulated by the respective cell population in 1 ml for 48 h.
DO.11.10 mice transgenic for an ovalbumin323-339 specific αβTCR were used as a source of antigen specific T cells. […] They were backcrossed on to a BALB/C background and (DO11.10×BALB/C)F1 mice were used as the source of T cells in all experiments. BALB/C (Taconics, Germantown, N.Y.) mice were used to provide splenic antigen presenting cells (APC).
Briefly, immunomagnetic depletion of CD8α^+, B220^+, and Mac-1^+ splenocytes was performed using goat anti-rat Ig coated beads (Biomag, PerSeptive Biosystems, Framingham, Mass.). The depleted population was then stained with anti-CD4-FITC and anti-L-selectin-PE and CD4^+ L-selectin^high cells were sorted using a FACStar^Plus cell sorter (Becton-Dickinson, Mountain View, Calif.). […] After 6 days, T cells were harvested, counted, and restimulated at 2.5×10^4 per well in 200 μl in 96 well plates for phenotype analysis by cytokine secretion. […]

C=C1/C(=C\C=C2/CCC[C@]3(C)[C@@H]([C@H](C)CCCC(C)(C)O)CC[C@@H]23)C[C@@H](O)C[C@@H]1O [VitD3, 1,25(OH)-Dihydroxyvitamin D3]
Resulting T cell population / cytokine profile (in words): drive the development of Th2 cells producing high levels of IL-4 and IL-5 and reduced IFN-γ
